System: Sprague-Dawley rats
Assay: Citrate in rats with ischemia/reperfusion injury or sham operation on a high phosphate diet with intermittent dehydration
Format: in vivo, rat
Conditions: day 60
Protocol: A total of 48 male and female Sprague-Dawley rats (150-200 g body weight at start of experiment) were divided in eight groups (A to H) containing 6 animals each (Table 1). On day 1 of the experiment groups A, B, E and F got 30 minutes of bilateral renal ischemia reperfusion injury, while control groups C, D, G and H were sham operated (12) (Table 1). The rats were given 48 hours to recover and BUN and serum creatinine levels were then determined.
On day 3 all groups (A to H) were put on a high phosphorus diet (NIH-07 diet, see reference #6) for 60 days. All groups were dehydrated for 8 hours once a week. While groups B, D, F and H received citrate (2% wt) in their drinking water, the other groups had access to regular tap water, except during periods of dehydration. As rats typically consume a daily average of 10 ml of water per 100 g of body weight, each rat of groups B, D, F and H received an approximate daily dosage of 2 g of citrate per kg of body weight.
On day 30 arterial blood samples were collected for pH, BUN and serum creatinine measurements.
On day 60 all animals were sacrificed. Arterial blood samples were collected for serum pH, phosphorus, BUN and creatinine measurements. Bladder urine samples were collected for pH measurements. Kidneys were longitudinally dissected, formalin fixed and paraffin embedded for generation of light microscopic sections. Additional paraffin embedded tissue sections were stained with “von Kossa” stain for calcium crystal identification and LM tissue sections were scored for acute tubular injury as described elsewhere.
Statistically significant differences between experimental groups were determined using Bonferroni t-tests and analysis of variance.

O=C(O)CC(O)(CC(=O)O)C(=O)O [citrate]
Decrease of serum phosphorus levels (all groups (male/female, I/R or sham), high phosphate diet, citrate in drinking water): 30%
Effect on serum pH (all study groups): did not have a significant effect
Effect on urine pH (all study groups): did not have a significant effect
Histology: tubular injury, casts and calcium phosphate crystals (female I/R rats with citrate supplementation): focal tubular dilation but no casts and no calcium phosphate crystals
Histology: tubular morphology (female sham operated rats, without vs with citrate): no significant difference in tubular morphology
Histology: morphologic changes of ATN (male I/R rats with citrate supplementation): markedly reversed
Serum BUN levels (renal function) (male and female rats with I/R, high phosphate diet, citrate 2% wt in drinking water): returned BUN levels to near control values
Histology: tubular injury and cast formation (male sham operated rats with citrate supplementation): markedly decreased tubular injury and cast formation

Reference: patent publication US20090062387A1, “METHOD OF PREVENTING NEPHROCALCINOSIS” (priority 2007, published 2009)
